Measured values: ChEMBL document CHEMBL5260847, “Current scenario of indole derivatives with potential anti-drug-resistant cancer activity” (Eur J Med Chem, 2020)
One block for each compound: values may come before it.

What was measured:
H69AR [1] = assay: Antiproliferative activity against multidrug resistant human NCI-H69AR assessed as inhibition of cell proliferation by MTT assay; type: functional, cell-based
ZR-75-1 = assay: Antiproliferative activity against human ZR-75-1 cells assessed as reduction in cell viability celltiter-Glo assay; type: functional, cell-based
[2] = Selectivity index, ratio of IC50 for antiproliferative activity against human MCF-10A cells to IC50 for antiproliferative activity against […] cells by MTT assay; type: toxicity, cell-based; details: MCF-10A cells and IEC-6 cells, read-out: Selectivity Index
H69AR [3] = assay: Antiproliferative activity against multi-drug resistant human NCI-H69AR assessed as reduction in cell viability; type: functional, cell-based
HT-29 [4] = assay: Antiproliferative activity against human HT-29 cells assessed as reduction in cell viability celltiter-Glo assay; type: functional, cell-based
A549 [5] = assay: Antiproliferative activity against drug-sensitive human A549 cells assessed as reduction in cell viability by MTT assay; type: functional, cell-based
IEC-6 = assay: Antiproliferative activity against rat IEC-6 cells assessed as reduction in cell viability measured after 48 hrs by MTT assay; type: functional, cell-based; details: IEC-6, 48 h
A549 [6] = assay: Cytotoxicity activity against human A549 cells assessed as reduction in cell viability incubated for 72 hrs by MTT assay; type: functional, cell-based; details: A549, 72 h
MCF7 [7] = assay: Cytotoxicity activity against human MCF7 cells assessed as reduction in cell viability incubated for 72 hrs by MTT assay; type: functional, cell-based; details: MCF7, 72 h
HepG2 = assay: Cytotoxicity activity against human HepG2 cells assessed as reduction in cell viability incubated for 72 hrs by MTT assay; type: functional, cell-based; details: HepG2, 72 h
HT-29 [8] = assay: Cytotoxicity activity against human HT-29 cells assessed as reduction in cell growth measured after 72 hrs by MTT assay; type: functional, cell-based; details: HT-29, 72 h
KB [9] = assay: Cytotoxicity activity against vincristine-resistant human KB cells assessed as reduction in cell growth; type: functional, cell-based
[10] = system: Epidermoid carcinoma cell line; assay: Cytotoxicity activity against vincristine-resistant human Epidermoid carcinoma cell line assessed as reduction in cell growth; type: functional, cell-based
A549 [11] = assay: Antiproliferative activity against multi-drug resistant human A549 cells assessed as reduction in cell viability; type: functional, cell-based
KB [12] = assay: Cytotoxicity against human KB cells assessed as reduction in cell viability measured after 48 hrs by MTT assay; type: functional, cell-based
HT-29 [13] = assay: Cytotoxicity activity against human HT-29 cells assessed as reduction in cell viability by SRB assay; type: functional, cell-based
LS180 [14] = assay: Antitumor activity against human LS180 cells xenografted in ICR mouse assessed as tumor growth inhibition at 4.5 mg/kg; type: functional; set-up: scale not given: the % may be the effect or the level left
LS180 [15] = assay: Antitumor activity against human LS180 cells xenografted in ICR mouse assessed as tumor growth inhibition at 45 mg/kg; type: functional; set-up: scale not given: the % may be the effect or the level left
PC-3 = assay: Cytotoxicity activity against human PC-3 cells assessed as reduction in cell viability by MTT assay; type: functional, cell-based
CWR22R = assay: Cytotoxicity activity against human 22Rv1 assessed as reduction in cell viability by MTT assay; type: functional, cell-based
A2780 = assay: Antiproliferative activity against human A2780 cells assessed as inhibition of cell proliferation measured after 24 hrs by MTT assay; type: functional, cell-based; details: A2780, 24 h
K562 = assay: Cytotoxicity against human K562 cells assessed as reduction in cell viability incubated for 72 hrs by MTT assay; type: functional, cell-based; details: K562, 72 h
HeLa = assay: Antiproliferative activity against human Hela cells assessed as reduction in cell viability measured after 48 hrs by MTT assay; type: functional, cell-based
MCF7 [16] = assay: Antiproliferative activity against human MCF7 cells assessed as inhibition of cell proliferation incubated for 72 hrs by MTT assay; type: functional, cell-based; details: MCF7, 72 h
A549 [17] = assay: Antiproliferative activity against human A549 cells assessed as inhibition of cell growth measured after 72 hrs by SRB assay; type: functional, cell-based; details: A549, 72 h
A549 [18] = assay: Cytotoxicity activity against human A549 cells assessed as reduction in cell viability by SRB assay; type: functional, cell-based
[19] = Antiproliferative activity against human KB-VIN cells assessed as reduction in cell viability measured after 72 hrs by SRB assay; type: functional, cell-based; details: KBVIN

IC50 (HT-29 [4]): 7.25 µM | IC50 (A549 [5]): 10.1 µM
Structure (SMILES): O=C1Nc2ccc(Cl)cc2/C1=N/N=C/c1nc(-c2ccccc2)cs1
IC50 (H69AR [1]): 16.6 µM | IC50 (ZR-75-1): 1.95 µM | selectivity ratio [2]: 1.8 | IC50 (H69AR [3]): 16 µM | IC50 (IEC-6): 8.98 µM

Structure (SMILES): CCC1CN(C)[C@H]2Cc3c([nH]c4ccccc34)[C@@H](n3c4c(c5c(OC)c([C@H]6C[C@H]7[C@H](CC)CN(C)[C@@H](Cc8c6[nH]c6ccccc86)[C@H]7C(=O)OC)ccc53)CCN3C[C@H]5CC[C@H]4[C@H]3[C@@H]5CC)C[C@@H]1[C@@H]2C(=O)OC (single isomer, unassigned)
IC50 (A549 [6]): 10.2 µM | IC50 (MCF7 [7]): 11.3 µM | IC50 (HepG2): 12.6 µM | IC50 (HT-29 [8]): 11.4 µM

Structure (SMILES): CC[C@@]12CC(C(=O)OC)=C3N=C4C(=CC(=O)C(O)=C4OC)[C@@]34CCN([C@@H]3c5cc6c(cc5O[C@@H]3[C@H]1O)NC1=C(C(=O)OC)C[C@]3(CC)[C@@H]5O[C@@H]5CN5CC[C@@]16[C@@H]53)[C@H]42
IC50 (KB [9]): 0.01 µM | IC50 [10]: 2.9 µM

IC50 (A549 [11]): 76.9 µM
Structure (SMILES): CCOC(=O)c1c(-c2ccc(F)cc2)oc2ccc(OCCCCCCN3C(=O)C(=O)c4cc(OC)ccc43)cc12

Structure (SMILES): CC[C@@]12CCCN3CCc4c(n(c5ccccc45)[C@H](c4ccc5c(c4)[C@@]46CCN7CCC[C@]8(CC[C@]4(C[C@@H]8C(=O)OC)N5)[C@H]76)C1)[C@H]32
IC50 (KB [12]): 7.8 µM

Structure (SMILES): C/C=C1/CN2[C@H]3C[C@@H]1C(CO)[C@@H]2Cc1c3n(C)c2cc(C[C@H]3[C@@H]4C[C@H]5c6c(c7ccccc7n6C)C[C@@H]([C@@H]4CO[C@]3(C)OC)N5C)c(OC)cc12 (some centres undefined)
IC50 (HT-29 [13]): 0.02 µM

Structure (SMILES): CCO[C@]1(C)C[C@@H]2CN(CCc3c([nH]c4ccccc34)[C@@](C(=O)OC)(c3cc4c(cc3OC)N(C)C3[C@]45CCN4CC=C[C@@](CC)([C@@H](OC(C)=O)[C@]3(O)C(=O)OC)[C@H]45)C2)C1 (some centres undefined)
Activity (LS180 [14]): 40.7% | Activity (LS180 [15]): 67.8%

IC50 (A549 [11]): 47.6 µM
Structure (SMILES): CCOC(=O)c1c(-c2ccccc2)oc2ccc(OCCCCCCN3C(=O)C(=O)c4ccccc43)cc12

Structure (SMILES): CC(=O)O[C@]1(C)CO[C@@]23CC[C@@]4(C)[C@@](O)(CC[C@H]5Cc6c([nH]c7cc(Cl)ccc67)[C@@]54C)C2=CC(=O)[C@@H]1O3
IC50 (PC-3): 4.86 µM | IC50 (CWR22R): 3.8 µM

IC50 (A2780): 9.3 µM
Structure (SMILES): Fc1ccc(C2=NCc3c([nH]c4ccccc34)S2)cc1

Structure (SMILES): COc1cccc2c1C(=O)c1c(O)c3c(c(O)c1C2=O)C[C@@](O)(C(=O)CO)C[C@@H]3O[C@H]1C[C@H](N)[C@H](O)[C@H](C)O1 [DOXORUBICIN]
IC50 (K562): > 168 µM | IC50 (HT-29 [8]): 1.48 µM

IC50 (HeLa): > 100 µM
Structure (SMILES): O=Cc1c[nH]c2ccccc12 [3-FORMYLINDOLE]

IC50 (MCF7 [16]): 12.9 µM | IC50 (A549 [17]): 3.1 µM
Structure (SMILES): CC[C@@H]1C[C@@H]2CN3CCc4c([nH]c5c([C@H]6CC7[C@]8(O[C@@H]8C)[C@@H]8OC[C@@]7(C(=O)OC)[C@H](Cc7c6[nH]c6ccccc76)N8C)c(OC)ccc45)[C@@](C(=O)OC)(C2)[C@@H]13
IC50 (A549 [18]): 4.8 µM | IC50 [19]: 2.6 µM
